Measured values reported in EP1342779A1, “Means and methods for manipulating hypersensitivity-like responses” (Fornix Biosciences N.V., priority 2002, dated 2003).

How the values were obtained:
[1] = tested on: Ig light chain; experiment: Stability of F991 in ointment, read out as activity in the ear swelling test after storage; assay type: in vivo, mice; settings: Cremor Cetamacrogolis FNA, stored 2-3 months at room temperature and at 4 degrees Celsius
Experimental: (§1) • A. F991 was prepared as an ointment in Cremor Cetomacrogolis FNA and topically applied on the ear at 4 hours before hapten challenge. Subsequently, mice were passively sensitized with 2 µg TNP-specific Ig-LC n at 30 min before and ear thickness was measured 2 hours after hapten challenge of the ears. […] Therefore F991 was applied on the back of the mice instead of at the site of hapten challenge (ear). Mice were again sensitized and challenged as described above. […] This means that epicutaneous treatment should be done at the site of challenge (Figure 14). • C. Stability of F991 in ointment To determine the stability of F991 in ointment, different preparations of F991 in Cremor Cetamacrogolis FNA were tested for their activity after storage for 2-3 months at room temperature and at 4 degrees Celsius. The different preparations were applied at the ear as described in A. and subsequently ear swelling was monitored after hapten challenge of Ig-LC-sensitized animals. […] Mice were sensitized with a low molecular weight compound DNFB on the skin and footpads (on day 0 and 1). 5 days after the start of sensitization and 4 hours before local challenge with hapten, mice were treated with F991 on the ears.

[2] = tested on: Ig light chain; experiment: Ig-LC-induced ear swelling after hapten challenge of mice passively sensitized with TNP-specific Ig-LC (inhibition by F991); assay type: in vivo
Text: F991 is developed as an antagonist of Ig light chain. The working hypothesis for this compound is that it binds to Ig light chains and thereby prevents binding of light chains to their putative receptors. F991 is a 9-mer peptide derived from the endogenous protein uromodulin. The potency of F991 to inhibit Ig-LC induced cutaneous reactions (ear swelling responses) was studied. Our working hypothesis for this compound is that it is an antagonist of Ig-LC and binds to Ig-LC and thereby prevents binding of Ig-LC to their putative receptors. F991 was administered in different dosages, via various administration routes.
Indicated amounts of F991 per mouse were intravenously injected at 30 min before hapten challenge. At that same time point mice were injected (passively sensitized) with TNP-specific Ig-LC or vehicle (PBS). […]
Mice were i.v. sensitized with 2 µg TNP-specific Ig light chain at 30 min before ear challenge with TNP. Control mice were injected with PBS instead of Ig light chain. […]

[3] = tested on: DNFB-sensitized mice; experiment: Contact sensitivity after active sensitization with DNFB, ear swelling; assay type: in vivo; settings: F991 topically on the ears 4 hours before challenge
Experimental: as §1, with “5 days after the start of sensitization and 4 hours before local challenge with hapten, mice were treated with F991 on the ears.” left out
Topical treatment of DNFB-sensitized mice at 4 hours before hapten challenge results in complete inhibition of the development of contact sensitivity response as determined by earswelling at 2 and 24 hours after challenge.

[4] = tested on: myelin oligodendrocyte glycoprotein (MOG)-induced experimental allergic encephalomyelitis (EAE); experiment: MOG-induced experimental allergic encephalomyelitis (EAE), mouse model for MS; assay type: in vivo
Text: If light chains were involved in the activation of mast cells in patients with MS, the prediction is that F991 may be of therapeutic interest in the treatment of MS. We tested if F991 was able to prevent of reduce development clinical signs in an established mouse model for MS, i.e. myelin oligodendrocyte glycoprotein (MOG)-induced experimental allergic encephalomyelitis (EAE). Mouse were sensitized with antigenic peptide 35-55 from MOG in complete freund adjuvant. At the day of sensitization and 3 days later, mice also received an injection with pertussis toxin. In general, 10-12 days after the start of sensitization mice develop clinical signs of MS, which can be scored in degree of paralysis (0=no paralysis, 1=tail flaccidity, 2=hind limb weakness, 3=hind limb paralysis, 4=forelimb paralysis or loss of ability to right supine, 5=death). To investigate if F991 is able to prevent development of clinical signs of MS, mice were daily injected with 50 µg F991/animal i.p. starting at day -1 until day 21. […] Control mice developed disease with a mean day of onset of 11.8 and a mean clinical score of 2.3. There was a significant difference in disease burden (mean cumulative EAE score) between the F991 (mean 4.2) treated group and the control group (mean 18.3). […] (Figure 17).

[5] = 50 µg F991/animal i.p. daily from day -1 until day 21

F991: 9-mer peptide derived from the endogenous protein uromodulin, developed as an antagonist of Ig light chain; sequence probably AHWSGHCCL
stability of F991 in ointment (activity after storage) [1]: retained its activity | block of the Ig-LC -induced ear swelling ([2]; 2 µg per mouse (1.9 nmole) i.v. 30 min before hapten challenge, 2 hours after challenge): completely block | induction of an ear swelling response ([2]; 50 µg F991 intraperitoneally at 4 or 24 hours before hapten challenge): completely prevented | Ig-LC -induced ear swelling after hapten challenge ([2]; 50 µg F991 subcutaneously at 4 or 24 hours before hapten challenge): completely inhibited | systemic inhibition of the Ig-LC effects ([2]; F991 ointment applied on the back of the mice instead of the ear): does not result in systemic inhibition | inhibition of the ear swelling induced after hapten challenge ([2]; F991 ointment in Cremor Cetomacrogolis FNA applied on the ear 4 hours before hapten challenge, 2 hours after challenge): dose-dependent inhibition | inhibition of the ear swelling response ([2]; different amounts of F991 i.v. 30 min before hapten challenge, ear thickness 2 hours after challenge): dose-dependent inhibition | ear swelling, contact sensitivity ([3]; 2 hours after challenge): completely inhibited | ear swelling, contact sensitivity ([3]; 24 hours after challenge): completely inhibited | development of clinical signs of paralysis [4, 5]: completely prevented | disease burden (mean cumulative EAE score) [4, 5]: 4.2 | clinical symptoms after termination of the treatment ([4]; termination of F991 at 21 days after sensitization): some minor clinical symptoms
